Laboratory results reported in paper PMC9995496, “A screen for MeCP2-TBL1 interaction inhibitors using a luminescence-based assay” (Scientific Reports, 2023).

Target: T1, MeCP2-TBL1 interaction (MeCP2-SmBiT / TBL1-LgBiT) (Mus musculus, UniProt Q9QXE7)
T1 construct: expressed in transfected cells; crude lysate used as a cell-free assay
T1 sequence (Q9QXE7 166-527): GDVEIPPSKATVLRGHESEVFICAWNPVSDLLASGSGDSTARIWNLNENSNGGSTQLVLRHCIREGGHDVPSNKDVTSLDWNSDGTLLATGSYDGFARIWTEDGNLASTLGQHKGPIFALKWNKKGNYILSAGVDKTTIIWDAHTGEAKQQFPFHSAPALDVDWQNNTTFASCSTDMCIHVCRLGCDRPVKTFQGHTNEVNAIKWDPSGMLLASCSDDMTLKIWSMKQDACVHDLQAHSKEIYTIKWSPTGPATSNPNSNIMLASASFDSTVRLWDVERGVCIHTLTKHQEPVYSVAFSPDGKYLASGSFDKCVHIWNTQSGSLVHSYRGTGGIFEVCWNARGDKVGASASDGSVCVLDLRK
Assay: MeCP2-TBL1 NanoLuc luciferase complementation assay (cell-free, extracts of transfected HEK293 cells);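 further: each compound tested at 20 µM final concentration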
Assay type: binding, human
Procedure, shortened: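 Cell-free split NanoLuc: lysate of HEK293 cells co-expressing the MeCP2 C-terminal half-SmBiT and TBL1 WD domain-LgBiT, mixed 1:1 with furimazine. After 30 min at room temperature, luminescence was plate-median normalized.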

[1] = primary screen of the Asinex library, sheet "Sargen output Asinex library", one well per compound, Batch Ref. 1
[2] = primary screen of the Asinex library, sheet "Sargen output Asinex library", one well per compound
[3] = primary screen of Asinex library, single well per compound

| SMILES | Inhibition percent [1] [%] | other results |
| --- | --- | --- |
| Cn1c(CCC(=O)N2CC[C@@H]3[C@H]2CCCC(=O)N3Cc2ccc(F)cc2)nc2ccccc21 [BDG_23960040] | 1.86 | – |
| CN(CCC(=O)N1[C@H](Cc2ccccc2)C[C@]2(C)NC(=O)CCC[C@H]12)Cc1ccccn1 [BDG_24639113] | – | Inhibition percent [2]: -2.30% |
| Cc1cc(C)nc(NCCCC(=O)N2[C@H](Cc3ccccc3)C[C@]3(C)NC(=O)CCC[C@H]23)n1 [BDG_24639132] | – | Inhibition percent [3]: -1.41 |
| O=C1CCC[C@H]2[C@@H](C[C@@H](c3cccc(C(F)(F)F)c3)N2C(=O)CCc2ccccc2)N1 [BDG_27570843] | 0.77 | – |
| CC(=O)N[C@@]12CCN(CCOc3ccc(F)cc3)C[C@@H]1[C@@H](c1ccccc1)N(C(C)=O)C2 [BDG_30283198] | – | Inhibition percent [2]: -0.86% |
| C[C@]12C[C@@H]3N[C@H]1CCC[C@H]2N(Cc1ccccc1C(=O)O)[C@H]3Cc1ccccc1 [BDG_33391350] | -0.20 | – |
| C[C@]12C[C@@H]3N[C@H]1CCC[C@H]2N(C(=O)COc1ccccc1F)[C@H]3Cc1ccccc1 [BDG_33391690] | 4.10 | – |
| C[C@@]12C[C@H]3[C@@H](Cc4ccccc4)N[C@@H]1CCC[C@@H]2N3C(=O)c1cccc(Cc2ccccc2F)n1 [BDG_33393042] | – | Inhibition percent [3]: -2.99 |
| C[C@]12C[C@@H]3N[C@H]1CCC[C@H]2N(C(=O)c1cccc(Cc2ccccc2F)n1)[C@H]3Cc1ccccc1 [BDG_33393043] | – | Inhibition percent [2]: 5.29% |
| C[C@@]12C[C@H]3[C@H](Cc4ccccc4)N[C@@H]1CCCC[C@@H]2N3C(=O)CNC(=O)c1ccccc1 [BDG_33503003] | 1.11 | – |
| CC(=O)N1[C@H](Cc2ccccc2)[C@@H]2C[C@@]3(C)[C@H](CCC[C@@H]13)N2C(=O)CNC(=O)c1ccccc1 [BDG_33503016] | 3.61 | – |
| COc1ccccc1OCC(=O)N1[C@@H](Cc2ccccc2)[C@@H]2C[C@@]3(C)[C@H](CCC[C@@H]13)N2 [BDG_33503207] | 2.88 | – |
| COc1cccc(-c2cc(C(=O)N3[C@H]4CCC[C@H]5N(C)[C@@H](Cc6ccccc6)[C@@H]3C[C@@]45C)[nH]n2)c1 [BDG_33504530] | 8.58 | – |
| C[C@@]12C[C@H]3[C@@H](Cc4ccccc4)N[C@@H]1CCCC[C@@H]2N3C(=O)CNC(=O)c1cncc(O)c1 [BDG_33504652] | 0.85 | – |
| CCOc1ccc(-c2cc(C(=O)N3[C@@H](Cc4ccccc4)[C@@H]4C[C@@]5(C)[C@H](CCC[C@@H]35)N4)[nH]n2)cc1 [BDG_33504765] | 12.86 | – |
| C[C@@]12C[C@H]3[C@H](Cc4ccccc4)N[C@@H]1CCCC[C@@H]2N3C(=O)COc1ccccc1 [BDG_33505297] | -0.84 | – |
| C[C@]12C[C@@H]3N[C@H]1CCCC[C@H]2N(C(=O)COc1ccc(F)cc1F)[C@H]3Cc1ccccc1 [BDG_33505865] | – | Inhibition percent [3]: 1.00 |
| COc1cccc(-c2cc(C(=O)N3[C@H]4CCC[C@H]5N(C)[C@H](Cc6ccccc6)[C@@H]3C[C@@]45C)on2)c1 [BDG_33506470] | – | Inhibition percent [2]: 3.67% |
| Cc1nc(-c2cccnc2)sc1C(=O)N1[C@H]2CCC[C@H]3N[C@H](Cc4ccccc4)[C@@H]1C[C@@]23C [BDG_33506581] | – | Inhibition percent [2]: -1.21% |
| CC(=O)N1[C@@H](Cc2ccccc2)[C@@H]2C[C@@]3(C)[C@H](CCCC[C@@H]13)N2Cc1ccc(OCC(=O)O)cc1 [BDG_33507682] | – | Inhibition percent [2]: 3.50% |

| SMILES | Inhibition percent [1] [%] | other results |
| --- | --- | --- |
| CCc1nccn1-c1ccc(C(=O)N2[C@H]3CCC[C@H]4N[C@@H](Cc5ccccc5)[C@@H]2C[C@@]34C)cn1 [BDG_33507727] | – | Inhibition percent [2]: -2.00% |
| C[C@@]12C[C@H]3[C@H](Cc4ccccc4)N[C@@H]1CCC[C@@H]2N3C(=O)c1ccnc(Cc2ccccc2F)c1 [BDG_33507770] | -1.87 | – |
| O=C(COc1ncnc2ccccc12)N1C[C@@H]2CC[C@H](Oc3ccc(Cl)cc3)[C@@H]2C1 [BDG_33516371] | 0.45 | – |
| CN(C)[C@@H]1C[C@@H](C(N)=O)N(CC(=O)Nc2ccc(Oc3ccccc3)cc2)[C@H]1c1ccccc1 [BDG_33626169] | 3.84 | – |
| C[C@]12C[C@@H](Cc3ccccc3)N(C(=O)CCNC(=O)c3cccnc3)[C@H]1CCCC(=O)N2 [BDG_33627395] | – | Inhibition percent [3]: 0.80 |
| Cn1c(COCC(=O)N2[C@H](Cc3ccccc3)C[C@]3(C)NC(=O)CCC[C@H]23)nc2ccccc21 [BDG_33628430] | -0.52 | – |
| C[C@]12C[C@@H](Cc3ccccc3)N(C(=O)CCCNc3ncnc4ccccc34)[C@H]1CCCC(=O)N2 [BDG_33628681] | -1.67 | – |
| Cc1cccc(NC(=O)CCCC(=O)N2[C@H](Cc3ccccc3)C[C@]3(C)NC(=O)CCC[C@H]23)n1 [BDG_33629701] | -3.82 | – |
| CC(=O)N[C@H]1C[C@@H](C(=O)N(C)C)N(C(=O)CCCn2c(C)nc3ccccc32)[C@H]1c1ccccc1 [BDG_33630230] | – | Inhibition percent [3]: -0.15 |
| CN(CCC(=O)N1[C@H](Cc2ccccc2)C[C@]2(C)NC(=O)CCC[C@H]12)Cc1cccnc1 [BDG_33630477] | – | Inhibition percent [2]: -2.32% |
| CC(=O)N[C@H]1C[C@@H](C(=O)N(C)C)N(C(=O)CCn2cnc3ccccc32)[C@H]1c1ccccc1 [BDG_33631962] | – | Inhibition percent [3]: 5.65 |
| COc1ccc2c(c1)[C@H]1OCC3(CCN(S(C)(=O)=O)CC3)C[C@@H]1C(C)(C)O2 [BDG_33690555] | -0.51 | – |
| COc1ccc2c(c1)[C@H]1OCC3(CCN(Cc4cnccn4)CC3)C[C@@H]1C(C)(C)O2 [BDG_33690689] | – | Inhibition percent [2]: -2.69% |
| Cc1cnc(C(=O)N2CCC3(CC2)CO[C@@H]2c4ccc(O)cc4OC(C)(C)[C@H]2C3)cn1 [BDG_33691581] | – | Inhibition percent [2]: 1.04% |
| CC1(C)Oc2cc(O)ccc2[C@H]2OCC3(CCN(C(=O)c4ncccc4O)CC3)C[C@@H]21 [BDG_33691662] | -1.26 | – |
| CCOc1cccc2c1OC(C)(C)[C@H]1CC3(CCN(Cc4cnc(NC)nc4)CC3)CO[C@H]21 [BDG_33691710] | – | Inhibition percent [3]: -4.17 |
| COc1ccc2c(c1)OC(C)(C)[C@H]1CC3(CCN(C(=O)CCn4ccnc4)CC3)CO[C@H]21 [BDG_33691777] | – | Inhibition percent [3]: -0.71 |
| CCc1cc(C(=O)N2CCC3(CC2)CO[C@@H]2c4cc(OC)ccc4OC(C)(C)[C@H]2C3)no1 [BDG_33691868] | 2.32 | – |
| Cc1ccc2c(c1)OC(C)(C)[C@H]1CC3(CCN(C(=O)CN4CCOCC4)CC3)CO[C@H]21 [BDG_33692107] | -1.45 | – |
| CC1(C)Oc2ccccc2[C@H]2OCC3(CCN(C(=O)CCc4cccnc4)CC3)C[C@@H]21 [BDG_33692190] | -1.50 | – |

| SMILES | Inhibition percent [1] [%] | other results |
| --- | --- | --- |
| COc1cccc2c1OC(C)(C)[C@H]1CC3(CCN(C(=O)CCCc4ccncc4)CC3)CO[C@H]21 [BDG_33693373] | – | Inhibition percent [2]: -2.47% |
| Cc1n[nH]c(C)c1S(=O)(=O)N1CCC2(CC1)CO[C@@H]1c3ccccc3OC(C)(C)[C@H]1C2 [BDG_33694386] | – | Inhibition percent [2]: 2.05% |
| CC1(C)Oc2ccc(Cl)cc2[C@H]2OCC3(CCN(C(=O)CNC(=O)c4ccccc4)CC3)C[C@@H]21 [BDG_33694526] | – | Inhibition percent [3]: -2.33 |
| CC1(C)Oc2ccccc2[C@H]2OCC3(CCN(C(=O)c4[nH]nc5c4CCCCC5)CC3)C[C@@H]21 [BDG_33694755] | 2.01 | – |
| COc1cccc2c1OC(C)(C)[C@H]1CC3(CCN(C(=O)CCCN4C(=O)CNC4=O)CC3)CO[C@H]21 [BDG_33695254] | – | Inhibition percent [3]: -4.47 |
| CC1(C)Oc2ccccc2[C@H]2OCC3(CCN(C(=O)c4cccc(-n5cnnc5)c4)CC3)C[C@@H]21 [BDG_33695504] | 0.97 | – |
| CC1(C)Oc2ccccc2[C@H]2OCC3(CCN(C(=O)c4ccnc(N5CCCC5)c4)CC3)C[C@@H]21 [BDG_33695760] | – | Inhibition percent [3]: 0.33 |
| CCN(CC)S(=O)(=O)N1CCC2(C/C=C/Cc3ccccc3OCC(=O)NC2)CC1 [BDG_33697034] | – | Inhibition percent [3]: 1.72 |
| COCC(=O)N1CC2(CO[C@@H]3c4cccc(OC)c4OC(C)(C)[C@H]3C2)C1 [BDG_33739062] | -2.32 | – |
| COc1cccc2c1OC(C)(C)[C@H]1CC3(CO[C@H]21)CN(Cc1cn(C)cn1)C3 [BDG_33739186] | – | Inhibition percent [2]: -0.50% |
| Cc1cccnc1C(=O)N1CC2(CO[C@@H]3c4ccccc4OC(C)(C)[C@H]3C2)C1 [BDG_33739514] | 0.31 | – |
| Cc1ccc2c(c1)OC(C)(C)[C@H]1CC3(CO[C@H]21)CN(C(=O)CCn1nc(O)ccc1=O)C3 [BDG_33741109] | -2.39 | – |
| Cc1cc(C)n(CCCC(=O)N2CCCC[C@]3(C)NC(=O)CC[C@H]23)n1 [BDG_33850399] | – | Inhibition percent [3]: 0.88 |
| CC(C)(C)OC(=O)N1CC[C@H]2O[C@H]3c4ccccc4OC(C)(C)[C@@H]3C[C@@]2(CO)C1 [BDG_33896521] | – | Inhibition percent [2]: 3.83% |
| CN(CCOc1ccccc1)C(=O)c1c(O)ccc2c1O[C@@H]1C[C@H]3C[C@H](C3(C)C)[C@]1(O)[C@H]2O [BDG_33899827] | 2.70 | – |
| COc1cccc2c1OC1(CCN(C)CC1)[C@H]1CCCO[C@H]21 [BDG_33900051] | – | Inhibition percent [2]: -1.32% |
| Oc1cccc2c1OC1(CCN(Cc3ccccc3)CC1)[C@H]1CCCO[C@H]21 [BDG_33900148] | 0.73 | – |
| Oc1cccc2c1OC1(CCN(Cc3ccncc3)CC1)[C@H]1CCCO[C@H]21 [BDG_33900152] | – | Inhibition percent [2]: -3.60% |
| Cc1ccc2c(c1)OC1(CCN(Cc3cscn3)CC1)[C@H]1CCCO[C@H]21 [BDG_33900204] | 4.69 | – |
| COC(C)(C)C(=O)N1CCC2(CC1)Oc1c(O)cccc1[C@H]1OCCC[C@@H]12 [BDG_33900229] | – | Inhibition percent [2]: -2.79% |
